Measurements: patent publication US20070128217A1 (priority 2003, published 2007)

Key:
[1] = tested on: antibodies in sera from SARS patients (sera 1a, 1b, 2, 6, 37, 62, London, SARS-yellow, SARS-green); type: binding, human; parameters: Binding of serum 6 to linear peptides of protein X1 of SARS-CoV Urbani / Binding of serum 37 to linear peptides of protein X1 of SARS-CoV Urbani / Binding of serum 6 to looped/cyclic peptide (PEPSCAN-ELISA) / Binding of serum 37 to looped/cyclic peptide (PEPSCAN-ELISA) / Binding of serum 37 to looped/cyclic peptides of protein X1 of SARS-CoV Urbani / Binding of serum 6 to linear peptides of protein X2 / Binding of serum 37 to linear peptides of protein X2 / Binding of serum 37 to looped/cyclic peptides of protein X2 of SARS-CoV Urbani / Binding of serum 6 to linear peptides of protein M of SARS-CoV Urbani / Binding of serum 37 to linear peptides of protein M of SARS-CoV Urbani / Binding of serum 6 to looped/cyclic peptides of protein M of SARS-CoV Urbani / Binding of serum 37 to looped/cyclic peptides of protein M of SARS-CoV Urbani / Binding of serum 6 to linear peptides of protein X3 of SARS-CoV Urbani / Binding of serum 37 to linear peptides of protein X3 of SARS-CoV Urbani / Binding of serum 37 to looped/cyclic peptides of protein X3 of SARS-CoV Urbani / Binding of serum 6 to linear peptides of protein X4 of SARS-CoV Urbani / Binding of serum 37 to linear peptides of protein X4 of SARS-CoV Urbani / Binding of serum 37 to looped/cyclic peptides of protein X4 of SARS-CoV Urbani / Binding of serum 6 to linear peptides of protein X5 of SARS-CoV Urbani / Binding of serum 37 to linear peptides of protein X5 of SARS-CoV Urbani / Binding of serum 37 to looped/cyclic peptides of protein X5 of SARS-CoV Urbani / Binding of serum 6 to linear peptides of protein N of SARS-CoV Urbani / Binding of serum 37 to linear peptides of protein N of SARS-CoV Urbani / Binding of serum 6 to linear peptide (PEPSCAN-ELISA) / Binding of serum 1a to looped/cyclic peptides of protein N of SARS-CoV Urbani / Binding of serum 1b to looped/cyclic peptides of protein N of SARS-CoV Urbani / Binding of serum 2 to looped/cyclic peptides of protein N of SARS-CoV Urbani / Binding of serum 6 to looped/cyclic peptides of protein N of SARS-CoV Urbani / Binding of serum 37 to looped/cyclic peptides of protein N of SARS-CoV Urbani / Binding of serum 62 to looped/cyclic peptides of protein N of SARS-CoV Urbani / Binding of serum London to looped/cyclic peptides of protein N of SARS-CoV Urbani / Binding of serum SARS-green to looped/cyclic peptides of protein N of SARS-CoV Urbani: unit not given here
[2] = tested on: control sera (pooled serum of ten healthy LUMC hospital workers; commercial negative donor pooled serum from the Dutch bloodbank); type: binding, human; parameters: Binding of Control serum LUMC to linear peptides / Binding of Control serum Blood-bank to linear peptides / Binding of Control serum LUMC to looped peptides / Binding of Control Serum Blood-Bank to Looped peptides / Binding of Control serum LUMC to linear peptides of the protein M of SARS-CoV Urbani / Binding of Control serum Blood-bank to linear peptides of the protein M of SARS-CoV Urbani / Binding of Control serum LUMC to looped peptides of the protein M of SARS-CoV Urbani / Binding of Control Serum Blood-Bank to Looped peptides of the protein M of SARS-CoV Urbani: unit not given here
[3] = tested on: rabbit serum obtained by immunizing a rabbit with the SARS-CoV strain Frankfurt 1; type: binding; parameters: Binding of a rabbit serum to linear peptides / Binding of a rabbit serum to looped peptides / Rabbit serum linear peptides / Rabbit serum looped peptides / Binding of a rabbit serum to linear peptides of protein N of SARS-CoV Urbani (Rabbit serum linear peptides) / Binding of a rabbit serum to looped/cyclic peptides of protein N of SARS-CoV Urbani (Rabbit serum looped peptides): unit not given here

Row | Sequence | Binding of serum 1a to linear peptides of protein X1 of SARS-CoV Urbani [1] | Binding of serum 1a to looped/cyclic peptide (PEPSCAN-ELISA) [1] | Binding of serum 1b to linear peptides of protein X1 of SARS-CoV Urbani [1] | Binding of serum 1b to looped/cyclic peptide (PEPSCAN-ELISA) [1] | Binding of serum 2 to linear peptides of protein X1 of SARS-CoV Urbani [1] | Binding of serum 2 to looped/cyclic peptide (PEPSCAN-ELISA) [1] | Binding of serum 6 to linear peptides of protein X1 of SARS-CoV Urbani [1] | Binding of serum 6 to looped/cyclic peptide (PEPSCAN-ELISA) [1] | Binding of serum 37 to linear peptides of protein X1 of SARS-CoV Urbani [1] | Binding of serum 37 to looped/cyclic peptide (PEPSCAN-ELISA) [1] | Binding of serum 62 to linear peptides of protein X1 of SARS-CoV Urbani [1] | Binding of serum 62 to looped/cyclic peptide (PEPSCAN-ELISA) [1] | Binding of serum London to linear peptides of protein X1 of SARS-CoV Urbani [1] | Binding of serum London to looped/cyclic peptide (PEPSCAN-ELISA) [1] | Binding of Control Serum Blood-Bank to Looped peptides [2] | Binding of Control serum Blood-bank to linear peptides [2] | Binding of Control serum LUMC to linear peptides [2] | Binding of Control serum LUMC to looped peptides [2] | Binding of a rabbit serum to linear peptides [3] | Binding of a rabbit serum to looped peptides [3] | other results
1 | LAVFQSATKIIALNK | 0.7 | 0.5 | 0.5 | 0.4 | 0.5 | 0.5 | 0.6 | 0.6 | 0.6 | 0.5 | 0.5 | 0.6 | 0.2 | 0.7 | 0.5 | 0.7 | 0.6 | 0.6 | 0.1 | 0.7 | Binding of serum SARS-green to linear peptides of protein X1 of SARS-CoV Urbani [1]: 0.3; Binding of serum SARS-green to looped/cyclic peptide (PEPSCAN-ELISA) [1]: 0.3; Binding of serum SARS-yellow to linear peptides of protein X1 of SARS-CoV Urbani [1]: 0.4; Binding of serum SARS-yellow to looped/cyclic peptide (PEPSCAN-ELISA) [1]: 0.5
2 | DLFMRFFTLGSITAQ | 0.7 | 0.5 | 0.5 | 0.3 | 0.4 | 0.3 | 0.1 | 0.3 | 0.6 | 0.5 | 0.5 | 0.5 | 0.2 | 0.2 | 0.5 | 0.6 | 0.6 | 0.5 | 0.1 | 0.3 | Binding of serum SARS-green to linear peptides of protein X1 of SARS-CoV Urbani [1]: 0.2; Binding of serum SARS-green to looped/cyclic peptide (PEPSCAN-ELISA) [1]: 0.2; Binding of serum SARS-yellow to linear peptides of protein X1 of SARS-CoV Urbani [1]: 0.4; Binding of serum SARS-yellow to looped/cyclic peptide (PEPSCAN-ELISA) [1]: 0.2
3 | LCKHKKVSTNLCTHS |  |  |  |  |  |  |  |  |  |  |  |  |  |  | 0.3 | 0.8 | 0.7 | 0.4 | 0.3 | 0.3 | Recognition of the peptide by sera of SARS-CoV infected individuals, and form (linear, looped/cyclic) in which it is recognized [1]: recognized in linear form
